Measurements published in patent US6388108B1, “Aminosterol compounds and uses thereof” (Genaera Corporation, priority 1998, dated 2002).
Values after ≈ are worked out from the molar mass of the structure shown.

Assays:
Experiment in all cases: Minimum inhibitory concentration (MIC), microtiter broth incubation
Format in all cases: cell-based
Conditions in all cases: 0.5x trypticase soy broth, 37° C., 18-24 hours; lowest concentration with no growth
S. aureus = tested on: S. aureus
Description: (§1) Aminosterol compounds (1)-(11) were assayed in vitro against several microbial organisms to evaluate their spectrum of activity. Minimum inhibitory concentrations (MIC) for the bacteria and yeast were determined by incubating 0.9-1.1e5 colony-forming units per milliliter of log-phase microbes in 0.5×trypticase soy broth with increasing concentrations of sample in ninety-six well microtiter plates (commercially available from Corning of Corning, N.Y.) at 37° C. for eighteen to twenty-four hours. The minimum inhibitory concentration (MIC) is the lowest concentration of sample at which no growth was observed. Control incubation in the absence of bacteria served as a baseline value. Initial sample concentrations were two milligrams per milliliter in 250 mM sodium acetate, pH 6.6.

P. aeruginosa = tested on: P. aeruginosa
Description: as §1

C. albicans = tested on: C. albicans
Description: as §1

E. coli = tested on: E. coli
Description: as §1

Row | Compound | MIC S. aureus (S. aureus) | MIC P. aeruginosa (P. aeruginosa) | MIC C. albicans (C. albicans) | MIC E. coli (E. coli)
1 | CC(COS(=O)(=O)O)C(O)CCC(C)C1CCC2C3C(O)CC4CC(NCCCNCCCCN)CCC4(C)C3CCC12C (stereo not drawn) [Aminosterol (4)] | 4 to 8 µg/mL | 32 µg/mL (≈ 49.7 µM) | 16 µg/mL (≈ 24.8 µM) | 128 µg/mL (≈ 199 µM)
2 | CC(CCCC(C)(C)O)C1CCC2C3C(O)CC4CC(NCCCNCCCCN)CCC4(C)C3CCC12C (stereo not drawn) [Aminosterol (8)] | 1 µg/mL (≈ 1.83 µM) | 32 µg/mL (≈ 58.4 µM) | – | 8 µg/mL (≈ 14.6 µM)
3 | CC(COS(=O)(=O)O)C(O)CCC(C)C1CCC2C3C(O)CC4CC(NCCCNCCCCNCCCN)CCC4(C)C3CCC12C (stereo not drawn) [Aminosterol (9)] | 31 µg/mL (≈ 44.2 µM) | 31 µg/mL (≈ 44.2 µM) | – | 31 µg/mL (≈ 44.2 µM)
4 | CC(CCC(=O)C(C)(C)O)C1CCC2C3C(O)CC4CC(NCCCNCCCCN)CCC4(C)C3CCC12C (stereo not drawn) [Aminosterol (2)] | 31 µg/mL (≈ 55.2 µM) | >250 µg/mL | – | 125 µg/mL (≈ 222 µM)
5 | CC(CO)C(=O)CCC(C)C1CCC2C3C(O)CC4CC(NCCCNCCCCN)CCC4(C)C3CCC12C (stereo not drawn) [Aminosterol (6)] | 8 µg/mL (≈ 14.2 µM) | >250 µg/mL | – | 63 µg/mL (≈ 112 µM)
6 | CC(CSCC(N)C(=O)O)C(=O)CCC(C)C1CCC2C3C(O)CC4CC(NCCCNCCCCN)CCC4(C)C3CCC12C (stereo not drawn) [Aminosterol (1)] | 8 to 16 µg/mL | 256 µg/mL (≈ 385 µM) | 128 µg/mL (≈ 192 µM) | 256 µg/mL (≈ 385 µM)
7 | CC(CO)C(O)CCC(C)C1CCC2C3C(O)CC4CC(NCCCNCCCCN)CCC4(C)C3CCC12C (stereo not drawn) [Aminosterol (5)] | 63 µg/mL (≈ 112 µM) | 250 µg/mL (≈ 443 µM) | – | 125 µg/mL (≈ 222 µM)

More lines, now with the values ahead:

Row | MIC S. aureus (S. aureus) | MIC P. aeruginosa (P. aeruginosa) | MIC C. albicans (C. albicans) | MIC E. coli (E. coli) | Compound
8 | 250 µg/mL (≈ 388 µM) | >250 µg/mL | – | >250 µg/mL | CC(CO)C(CCC(C)C1CCC2C3C(O)CC4CC(NCCCNCCCCN)CCC4(C)C3CCC12C)OS(=O)(=O)O (stereo not drawn) [Aminosterol (3)]
9 | 2 µg/mL (≈ 3.2 µM) | 31 µg/mL (≈ 49.5 µM) | – | 8 µg/mL (≈ 12.8 µM) | CC(C)C(CCC(C)C1CCC2C3C(=O)CC4CC(NCCCNCCCCN)CCC4(C)C3CCC12C)OS(=O)(=O)O (stereo not drawn) [Aminosterol (10)]
10 | 8 to 16 µg/mL | 16 µg/mL (≈ 24.8 µM) | 32 µg/mL (≈ 49.7 µM) | 16 µg/mL (≈ 24.8 µM) | CC(C)C(CCC(C)C1CCC2C3C(O)CC4CC(NCCCNCCCCN)CCC4(C)C3CC(O)C12C)OS(=O)(=O)O (stereo not drawn) [Aminosterol (7)]
11 | 16 µg/mL (≈ 26.1 µM) | 250 µg/mL (≈ 409 µM) | – | 125 µg/mL (≈ 204 µM) | CC(C)C(CCC(C)C1CCC2C3CCC4CC(NCCCNCCCCN)CCC4(C)C3CCC12C)OS(=O)(=O)O (stereo not drawn) [Aminosterol (11)]
